Reference: US8703964B2, “Bendamustine cyclopolysaccharide compositions” (Supratek Pharma Inc., priority 2009, dated 2014)

Assays:
[1] = tested on: Lewis Lung carcinoma 3LL cells; test: Murine experimental lung metastasis model (Example 26); assay type: in vivo, C57Bl/6 mice; settings: 50 mg/kg
Experimental: Female Charles Rivers C57Bl/6 mice, aged 5 to 6 weeks, were purchased from Charles River Canada Inc. The animals were kept 5 per cage with an air filter cover under light (12 light/dark cycle, light on at 6H00) and temperature (22°±1° C.)-controlled environment. All manipulations of animals were performed under a sterilized laminar hood. The animals had ad libitum access to Purina mouse chow (Pro Lab PMH 4018, Trademark of Agway, Syracuse, N.Y.) and water. These animal studies were conducted according to the “Guidelines for Care and Use of Experimental Animals”. Tumor Cell Culture:
Lewis Lung carcinoma 3LL cells were cultured in the appropriated culture medium. The cells were harvested in their logarithmic growth phase for the preparation of tumor implantation.
Lewis Lung carcinoma 3LL cells (2.0 to 5.0×10^5 cells in 200 ul PBS) were implanted intravenously by tail vein to establish experimental lung metastasis tumor models.
The treatments were performed on day after tumor implantation. The animals were dosed with the following dosing solutions.
non-formulated bendamustine (BM), (50 mg/kg)
Bendamustine (50 mg/kg) in 20% SBECD, 1% LMWP
Metastasis formation was evaluated by counting the numbers of metastasis spots on the lung surface. Routine metastasis examination were done for all organs at the end of the study.

[2] = tested on: Human breast carcinoma MDA-MB 231 s.c. solid tumors; test: Human breast carcinoma MDA-MB 231 s.c. solid tumors in nude mice (Example 29); assay type: in vivo, balb/c nu/nu mice; settings: for Tumor weight after treatment, Average (SEM): 30 mg/kg days 1, 2, 9, 10
Experimental: (§1) balb/c mice aged 5 to 6 weeks were purchased from Charles River Canada Inc. The animals were kept 5 per cage with an air filter cover under light (12 light/dark cycle, light on at 6 H00) and temperature (22° C.±1° C.)-controlled environment. All manipulations of animals were performed under a sterilized laminar hood. The animals had ad libitum access to Purina mouse chow (Pro Lab PMH 4018, Trademark of Agway, Syracuse, N.Y.) and water. These animal studies were conducted according to the “Guidelines for Care and Use of Experimental Animals”. Tumor Cell Culture: Human breast cancer cells MDA-MB 231 were cultured in the appropriated culture medium. The cells were harvested in their logarithmic growth phase for the preparation of tumor implantation. Tumor Implantation: Human tumor or myeloma cells (2.5 to 5.0×10^6 cells) were implanted subcutaneously in 0.200 mL of medium containing 30% Matrigel on the two flanks of balb/c nu/nu mice through a 1 to 2 cm long 20-gauge needle. Treatments: 2 to 3 weeks after tumor cell implantation, animals that developed s.c. solid tumors were selected and divided into several homogeneous groups (n=5 animals per group or dose) with respect to tumor size (0.5 to 0.8 cm in diameter). The treatments were performed next day. The animals were dosed with the following dosing solutions. Control: (0.9%, NaCl) Compositions:
(§2) Subcutaneous solid tumor measurements were performed on the day of first injection and at 3- to 4-day intervals thereafter. The two largest perpendicular diameters of each tumor were measured with calipers and tumor sizes were estimated using the formula: TV=L×W/2 where TV: tumor volume; L: length; W: width. The body weights of animals were also noted.
The experiment was performed employing the procedures described in Example 28, using the following compositions for treatment:
non-formulated Bendamustine, (30 mg/kg)
Bendamustine (30 mg/kg) in 20% SBECD, 1% LMWP (formulated BM)
(§3) The treatment was performed on days 1, 2, 9, and 10.

[3] = Pharmacokinetics of bendamustine dosed to rats, composition with SBECD and protamine sulphate (Example 13); assay type: in vivo; settings: female, Sprague-Dawley, rat, plasma, iv, i.v. 10 mg/kg, read-out: Concentration of bendamustine in rat plasma, Mean (SEM)
Experimental: Control: 2.5 mg/mL bendamustine hydrochloride, 4.25 mg/mL of mannitol in 0.9% NaCl; dose of 10 mg/kg
Inventive Composition: 2.5 mg/mL bendamustine hydrochloride, 40% w/w sodium sulfobutyl ether β-cyclodextrin, 3% protamine sulfate, 4.3 mg/g mannitol in water (produced according to the process described in Example 10); dose of 10 mg/kg.
Female Sprague-Dawley rats (250-350 g). The animals were kept three per cage with an air filter cover under light (12 h light/dark cycle, light on at 06 h00) and controlled temperature of 22° C.+/−1° C. All manipulations with the animals were performed under a sterilized laminar hood. The animals had ad libitum access to Purina mouse chow and water. The animals were fasted overnight and anesthetized, before dosing. Dosing and Sampling: Bendamustine composition and control were administered intravenously to rats in tail vein. After time intervals 5, 15, 30, 45 min, 1, 1.5, 2 and 3 hrs post-injection, the blood samples were collected. The rats were anesthetized by general inhalation of isoflurane. The blood samples were collected from the jugular vein with heparinized tube and kept on ice. Blood was immediately centrifuged, and plasma was separated. The plasma samples were immediately extracted. Sample Extraction and Analysis: The plasma samples 0.100 mL were transferred to plastic tubes. The samples were extracted with 0.400 mL of 100 mM HCl in acetonitrile while being shaken vigorously for 30 seconds. The samples were centrifuged at 10000 RPM for 5 minutes. The supernatant was separated. The samples were frozen in dry ice and kept at −80° C. until HPLC analysis. 20 microliter aliquots were injected into HPLC for analysis. The HPLC conditions: C18 reversed phase column 50×4.6 mm, Symmetry/Shield 3.5 micrometer Column temperature 30° C. Flow rate 1.5 mL/min Injection volume 20 microliters Fluorescence detection at wavelengths: excitation 327 nm, emission 420 nm Mobile phase: Buffer A: 5% acetonitrile 0.1% TFA Buffer B: 90% acetonitrile 0.1% TFA Run time: 10 min The improved pharmacokinetic profiles of Bendamustine for tested composition versus the control is shown in Table 3 below.

[4] = tested on: Human breast carcinoma MDA-MB 231 s.c. solid tumors; test: Human breast carcinoma MDA-MB 231 s.c. solid tumors in nude mice (Example 28); assay type: in vivo, balb/c nu/nu mice; settings: for Tumor weight after treatment, Average (SEM): 30 mg/kg days 1, 2, 9, 10
Experimental: as §1, §2
The experiment was performed as described in example 27, using the following compositions for treatment:
non-formulated bendamustine, (30 mg/kg)
Bendamustine (30 mg/kg) in 40% SBECD (formulated BM)
as §3

Cn1c(CCCC(=O)O)nc2cc(N(CCCl)CCCl)ccc21 [BM, 4-[5-[bis(2-chloroethyl)amino]-1-methylbenzimidazol-2-yl]butanoic acid]
Lung metastasis number ([1]; 3LL i.v. implanted, C57Bl/6 mice): 56.1 ± 9.5 | Inhibition on metastasis formation vs control ([1]; 3LL lung metastasis, mice): 14.4% | Inhibition on metastasis formation vs not formulated BM ([1]; 3LL lung metastasis, mice): 0% | Tumor weight after treatment, Average (SEM) ([2]; day 0): 0.139 (0.013) g | Tumor weight after treatment, Average (SEM) ([2]; day 2): 0.178 (0.027) g | Tumor weight after treatment, Average (SEM) ([2]; day 4): 0.202 (0.039) g | Tumor weight after treatment, Average (SEM) ([2]; day 6): 0.259 (0.049) g | Tumor weight after treatment, Average (SEM) ([2]; day 8): 0.295 (0.054) g | Tumor weight after treatment, Average (SEM) ([2]; day 10): 0.319 (0.044) g | Tumor weight after treatment, Average (SEM) ([2]; day 12): 0.361 (0.050) g | Tumor weight after treatment, Average (SEM) ([2]; day 14): 0.417 (0.054) g | Tumor weight after treatment, Average (SEM) ([2]; day 16): 0.487 (0.067) g | Inhibition % vs control (on day 16) ([2]; 30 mg/kg, Day 1, 2, 9, 10): 38.3% | Tumor weight on day 16 ([2]; 30 mg/kg, Day 1, 2, 9, 10, right flank tumors only): 0.487 ± 0.067 g | concentration at 0.08 h ([3]; 0.08 h post injection): 6040 ng/mL | concentration at 0.25 h ([3]; 0.25 h post injection): 2430 ng/mL | concentration at 0.5 h ([3]; 0.5 h post injection): 520 ng/mL | concentration at 0.75 h ([3]; 0.75 h post injection): 145 ng/mL | concentration at 1 h ([3]; 1 h post injection): 48 ng/mL | concentration at 1.5 h ([3]; 1.5 h post injection): 8 ng/mL | concentration at 2 h ([3]; 2 h post injection): 2 ng/mL | concentration at 3 h ([3]; 3 h post injection): 0 ng/mL | Tumor weight after treatment, Average (SEM) ([4]; day 0): 0.203 (0.028) g | Tumor weight after treatment, Average (SEM) ([4]; day 2): 0.238 (0.023) g | Tumor weight after treatment, Average (SEM) ([4]; day 5): 0.267 (0.022) g | Tumor weight after treatment, Average (SEM) ([4]; day 7): 0.313 (0.028) g | Tumor weight after treatment, Average (SEM) ([4]; day 9): 0.388 (0.045) g | Tumor weight after treatment, Average (SEM) ([4]; day 12): 0.497 (0.060) g | Tumor weight after treatment, Average (SEM) ([4]; day 14): 0.550 (0.075) g | Tumor weight after treatment, Average (SEM) ([4]; day 16): 0.594 (0.084) g | Tumor weight after treatment, Average (SEM) ([4]; day 19): 0.684 (0.098) g | Real Tumor weight on day 19 in autopsy ([4]; 30 mg/kg, Day 1, 2, 9, 10): 0.275 ± 0.052 g | Tumor weight on day 19 estimated from measurements of the tumor size ([4]; 30 mg/kg, Day 1, 2, 9, 10): 0.684 ± 0.10 g
